Molecules are shown by their SMILES.

The results in this text go back to patent publication US20260207578A1, “COMPOUND BASED ON SULFUR/OXYGEN SUBSTITUTED GLUTARIMIDE-BASED ISOINDOLINONE SKELETON AND USE THEREOF” (Gluetacs Therapeutics (Shanghai) Co., LTD., priority 2022, published 2026).

The target of one experiment is T1, IKZF2 (Homo sapiens, UniProt Q96SW2+Q9UKS7).
T1 construct: endogenous in cells; host or cells: human PBMCs (Milecell Biotechnologies)
As to the kind of experiment: Western-blot assay, substrate protein in hPBMCs. Format: cell-based. Conditions: hPBMC cells, 24 hours, tested at 50 nM and 500 nM, table does not say which. The procedure, abridged: (§1)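 Thawed hPBMCs, 1×10^6 cells/mL; 24 h compound; RIPA + phosphatase inhibitor lysis, BCA-normalised loading, SDS-PAGE, NC transfer, immunodetection. Bands vs internal control → % remaining; DC50 = concentration at 50% of DMSO band intensity.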

The target of another experiment is T2, GSPT1 (Homo sapiens, UniProt P15170+Q96SW2).
T2 construct: endogenous in cells; host or cells: human PBMCs (Milecell Biotechnologies)
Briefly: Western-blot assay, substrate protein in hPBMCs. Format: cell-based. The note with it: hPBMC cells, 24 hours, tested at 50 nM and 500 nM, table does not say which. The method in brief: as §1

In experiment [1] the target is T3, human Cereblon WT GST-tagged protein (Homo sapiens, UniProt Q96SW2).
T3 construct: purchased CISBIO 64BDCRBNPEH
Briefly: CRBN-binding affinity, HTRF (CEREBLON BINDING kit). Conditions: displacement of Thalidomide-Re reagent, 3 hours at room temperature. The procedure, abridged:
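Compounds displace a thalidomide-Re tracer from GST-tagged human Cereblon WT, detected with an Eu-labelled anti-GST antibody by time-resolved fluorescence. Signal at 620 nm was normalised against solvent and blank controls.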

In another experiment the target is T4, IKZF3 (Homo sapiens, UniProt Q96SW2+Q9UKT9).
T4 construct: endogenous in cells; host or cells: human PBMCs (Milecell Biotechnologies)
Briefly: Western-blot assay, substrate protein in hPBMCs. Type of experiment: cell-based. The note with it: hPBMC cells, 24 hours, tested at 50 nM and 500 nM, table does not say which. On the procedure:
(§2) The effect of the compounds of the present disclosure on the expression of target proteins in cells was detected using conventional Western blot analysis.
(§3) Human peripheral blood mononuclear cells (hPBMCs) at a density of 1×10^6 cells/mL were thawed according to the PBMC Recovery Protocol (Milecell Biotechnologies Inc, Shanghai). The cells were then treated with the compounds of the present disclosure (including the compounds listed in Tables 1 and 2, and the Examples A1-A20 and 1-116 compounds) at concentrations of 50 nM and 500 nM.
(§4) Controls included a negative control (DMSO) and a positive control (the commercial immunomodulatory drug lenalidomide), both processed following the identical experimental protocol as the compounds of the present disclosure. After 24 hours of compounds treatment, cells were harvested and lysed in RIPA protein lysate containing phosphatase inhibitors on ice for 30-60 min, followed by centrifugation. The supernatant was aspirated as the extracted total cell protein. The protein concentration of the supernatant was determined using the conventional BCA (Bicinchoninic Acid) assay. The supernatant was then mixed with 4× SDS sample loading buffer, denatured at 95° C. for 5 minutes, and then subjected to SDS-PAGE electrophoresis on a polyacrylamide gel. Proteins were then transferred to a nitrocellulose (NC) membrane, blocked at room temperature for 1-2 h, and processed for antibody incubation and detection according to the manufacturer's instructions (Cell Signaling Technology).
(§5) Half-Maximal Degradation Concentration value (the drug concentration required for degrading proteins by 50%, abbreviated as DC50) reads method: comparing the grayscale values of Western blot bands from drug-treated samples with those from blank DMSO-treated controls, and identifying the drug concentration range at which the grayscale value is half that of the DMSO-treated control bands.
(§6) DC50 values can be calculated using ImageJ software to measure grayscale values of Western blot bands from drug-treated samples. The concentration-response curve is fitted to estimate the drug concentration corresponding to half the grayscale value.
(§7) Target protein remaining (%) refers to the percentage of target protein remaining in hPBMC cells after treatment with protein degrader compounds.
(§8) Calculation method for protein remaining (%): Use ImageJ software to measure grayscale values of Western blot bands from drug (protein degrader)-treated samples. The grayscale value of drug-treated bands is divided by that of internal control protein bands, and the resulting quotient is normalized to obtain the relative percentage of remaining target protein after protein degrader treatment.
(§9) Target protein degradation rate (%)=100%−target protein remaining (%).

Another experiment addresses T5, Wee1 (Homo sapiens, UniProt P30291+Q96SW2).
T5 construct: endogenous in cells; host or cells: human PBMCs (Milecell Biotechnologies)
Briefly: Western-blot assay, substrate protein in hPBMCs. Type of experiment: cell-based. The note with it: hPBMC cells, 24 hours, tested at 50 nM and 500 nM, table does not say which. The method in brief:
as §1

For another experiment, the target named is T6, CK1α (Homo sapiens, UniProt P48729+Q96SW2).
T6 construct: endogenous in cells; host or cells: human PBMCs (Milecell Biotechnologies)
As to the kind of experiment: Western-blot assay, substrate protein in hPBMCs. Type of experiment: cell-based. The note with it: hPBMC cells, 24 hours, tested at 50 nM and 500 nM, table does not say which. The method in brief: as §1

For the next experiment, the target named is T7, IKZF1 (Homo sapiens, UniProt Q13422+Q96SW2).
T7 construct: endogenous in cells; host or cells: human PBMCs (Milecell Biotechnologies)
As to the kind of experiment: Western-blot assay, substrate protein in hPBMCs. Type of experiment: cell-based. The note with it: hPBMC cells, 24 hours, tested at 50 nM and 500 nM, table does not say which. The protocol: as §2, §3, §4, §5, §6, §7, §8, §9

T4 sequence (Q9UKT9 whole entry): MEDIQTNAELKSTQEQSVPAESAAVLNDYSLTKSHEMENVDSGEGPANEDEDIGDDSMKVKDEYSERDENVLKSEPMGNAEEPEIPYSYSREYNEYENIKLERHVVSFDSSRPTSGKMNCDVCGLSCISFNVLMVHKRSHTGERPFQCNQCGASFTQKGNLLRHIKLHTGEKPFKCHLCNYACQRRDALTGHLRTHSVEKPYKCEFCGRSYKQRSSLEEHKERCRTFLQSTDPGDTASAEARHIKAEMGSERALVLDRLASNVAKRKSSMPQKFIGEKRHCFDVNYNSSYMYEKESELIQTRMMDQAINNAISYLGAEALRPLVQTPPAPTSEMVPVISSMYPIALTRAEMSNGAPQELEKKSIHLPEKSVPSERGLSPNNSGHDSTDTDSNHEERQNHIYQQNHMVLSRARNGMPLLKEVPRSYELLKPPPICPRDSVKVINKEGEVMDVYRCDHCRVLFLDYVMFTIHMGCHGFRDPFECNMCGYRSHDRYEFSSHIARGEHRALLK
T4 sequence (Q96SW2 whole entry): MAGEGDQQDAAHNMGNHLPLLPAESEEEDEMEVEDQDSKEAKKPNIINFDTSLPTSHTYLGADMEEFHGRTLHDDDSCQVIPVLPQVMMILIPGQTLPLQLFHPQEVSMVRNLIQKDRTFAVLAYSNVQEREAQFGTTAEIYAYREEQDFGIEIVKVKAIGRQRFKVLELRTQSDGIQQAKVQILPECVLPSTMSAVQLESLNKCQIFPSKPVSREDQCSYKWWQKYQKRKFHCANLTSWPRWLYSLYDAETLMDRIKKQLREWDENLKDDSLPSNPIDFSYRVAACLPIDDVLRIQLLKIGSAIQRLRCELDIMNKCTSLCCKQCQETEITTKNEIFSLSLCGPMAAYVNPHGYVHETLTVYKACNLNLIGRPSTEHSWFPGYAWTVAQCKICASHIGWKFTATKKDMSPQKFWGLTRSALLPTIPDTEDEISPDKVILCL
T4 sequence (Q16531 whole entry partner): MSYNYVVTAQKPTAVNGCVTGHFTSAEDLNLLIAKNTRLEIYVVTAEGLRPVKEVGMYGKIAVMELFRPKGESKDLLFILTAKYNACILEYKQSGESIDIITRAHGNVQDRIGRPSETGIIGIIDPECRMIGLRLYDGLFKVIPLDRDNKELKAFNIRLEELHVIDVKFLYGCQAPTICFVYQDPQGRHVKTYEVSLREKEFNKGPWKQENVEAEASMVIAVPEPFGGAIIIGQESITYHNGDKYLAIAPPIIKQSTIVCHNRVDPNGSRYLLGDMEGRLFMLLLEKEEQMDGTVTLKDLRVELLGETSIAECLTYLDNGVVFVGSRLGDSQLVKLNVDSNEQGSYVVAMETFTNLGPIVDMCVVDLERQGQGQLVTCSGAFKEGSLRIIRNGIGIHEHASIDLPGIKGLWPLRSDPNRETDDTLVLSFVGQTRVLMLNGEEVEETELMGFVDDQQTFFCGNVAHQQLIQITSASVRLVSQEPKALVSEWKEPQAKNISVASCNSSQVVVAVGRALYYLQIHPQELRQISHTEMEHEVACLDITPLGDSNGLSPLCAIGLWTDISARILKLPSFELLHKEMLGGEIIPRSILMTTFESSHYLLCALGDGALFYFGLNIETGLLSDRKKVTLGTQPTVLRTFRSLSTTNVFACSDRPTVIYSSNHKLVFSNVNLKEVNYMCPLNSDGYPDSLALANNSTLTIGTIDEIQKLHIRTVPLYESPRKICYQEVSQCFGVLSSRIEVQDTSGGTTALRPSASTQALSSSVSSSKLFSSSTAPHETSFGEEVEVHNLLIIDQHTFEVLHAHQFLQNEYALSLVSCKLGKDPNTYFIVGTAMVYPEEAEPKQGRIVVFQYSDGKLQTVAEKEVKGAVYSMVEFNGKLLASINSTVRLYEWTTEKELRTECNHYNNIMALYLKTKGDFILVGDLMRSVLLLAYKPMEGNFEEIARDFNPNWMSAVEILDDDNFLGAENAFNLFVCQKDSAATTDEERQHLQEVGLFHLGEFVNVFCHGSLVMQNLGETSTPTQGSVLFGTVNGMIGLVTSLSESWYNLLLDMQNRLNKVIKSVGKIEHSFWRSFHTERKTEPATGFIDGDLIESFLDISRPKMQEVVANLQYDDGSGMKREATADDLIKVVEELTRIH
T5 sequence (P30291 whole entry): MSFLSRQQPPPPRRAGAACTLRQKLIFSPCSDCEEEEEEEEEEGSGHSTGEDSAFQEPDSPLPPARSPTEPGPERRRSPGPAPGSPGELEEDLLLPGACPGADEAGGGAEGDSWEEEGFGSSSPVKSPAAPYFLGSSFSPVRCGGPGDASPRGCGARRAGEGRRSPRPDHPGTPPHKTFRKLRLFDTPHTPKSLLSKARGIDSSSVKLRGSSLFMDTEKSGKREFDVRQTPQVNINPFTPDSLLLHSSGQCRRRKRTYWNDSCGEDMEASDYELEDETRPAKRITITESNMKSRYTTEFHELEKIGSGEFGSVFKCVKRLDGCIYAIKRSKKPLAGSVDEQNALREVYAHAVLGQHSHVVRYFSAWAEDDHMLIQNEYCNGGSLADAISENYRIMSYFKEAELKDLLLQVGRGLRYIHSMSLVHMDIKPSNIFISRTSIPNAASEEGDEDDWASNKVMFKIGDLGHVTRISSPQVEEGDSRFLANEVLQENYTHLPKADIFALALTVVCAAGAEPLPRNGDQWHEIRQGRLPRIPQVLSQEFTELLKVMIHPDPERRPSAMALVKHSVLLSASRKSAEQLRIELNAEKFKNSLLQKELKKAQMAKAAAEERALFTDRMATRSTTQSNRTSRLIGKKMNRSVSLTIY
T5 sequence (Q96SW2 whole entry): as the sequence (Q96SW2 whole entry) above
T5 sequence (Q16531 whole entry partner): as the sequence (Q16531 whole entry partner) above
T3 sequence (Q96SW2 whole entry): as the sequence (Q96SW2 whole entry) above
T1 sequence (Q9UKS7 whole entry): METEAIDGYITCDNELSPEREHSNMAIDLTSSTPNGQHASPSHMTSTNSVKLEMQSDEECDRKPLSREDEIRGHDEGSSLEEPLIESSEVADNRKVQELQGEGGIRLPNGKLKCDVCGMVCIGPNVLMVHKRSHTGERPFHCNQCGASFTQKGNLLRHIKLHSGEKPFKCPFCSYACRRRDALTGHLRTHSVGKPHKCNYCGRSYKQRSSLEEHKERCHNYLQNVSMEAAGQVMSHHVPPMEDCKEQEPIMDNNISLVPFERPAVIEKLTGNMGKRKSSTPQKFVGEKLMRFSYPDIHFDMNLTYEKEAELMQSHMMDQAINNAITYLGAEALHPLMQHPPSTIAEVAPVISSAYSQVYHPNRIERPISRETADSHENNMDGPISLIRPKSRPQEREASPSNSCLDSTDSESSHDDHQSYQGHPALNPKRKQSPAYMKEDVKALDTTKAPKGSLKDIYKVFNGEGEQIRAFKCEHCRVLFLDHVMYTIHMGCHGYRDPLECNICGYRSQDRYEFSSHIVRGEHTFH
T1 sequence (Q96SW2 whole entry): as the sequence (Q96SW2 whole entry) above
T1 sequence (Q16531 whole entry partner): as the sequence (Q16531 whole entry partner) above
T6 sequence (P48729 whole entry): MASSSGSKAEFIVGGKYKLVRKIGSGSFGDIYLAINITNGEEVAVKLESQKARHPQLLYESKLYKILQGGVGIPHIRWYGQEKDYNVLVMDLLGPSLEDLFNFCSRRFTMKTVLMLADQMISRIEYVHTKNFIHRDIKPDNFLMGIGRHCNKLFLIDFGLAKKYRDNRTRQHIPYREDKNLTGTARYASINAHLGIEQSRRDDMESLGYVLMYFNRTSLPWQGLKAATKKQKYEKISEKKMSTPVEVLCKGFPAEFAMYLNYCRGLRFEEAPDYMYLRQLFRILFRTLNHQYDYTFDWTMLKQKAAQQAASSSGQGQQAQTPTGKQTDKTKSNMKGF
T6 sequence (Q96SW2 whole entry): as the sequence (Q96SW2 whole entry) above
T6 sequence (Q16531 whole entry partner): as the sequence (Q16531 whole entry partner) above
T2 sequence (P15170 whole entry): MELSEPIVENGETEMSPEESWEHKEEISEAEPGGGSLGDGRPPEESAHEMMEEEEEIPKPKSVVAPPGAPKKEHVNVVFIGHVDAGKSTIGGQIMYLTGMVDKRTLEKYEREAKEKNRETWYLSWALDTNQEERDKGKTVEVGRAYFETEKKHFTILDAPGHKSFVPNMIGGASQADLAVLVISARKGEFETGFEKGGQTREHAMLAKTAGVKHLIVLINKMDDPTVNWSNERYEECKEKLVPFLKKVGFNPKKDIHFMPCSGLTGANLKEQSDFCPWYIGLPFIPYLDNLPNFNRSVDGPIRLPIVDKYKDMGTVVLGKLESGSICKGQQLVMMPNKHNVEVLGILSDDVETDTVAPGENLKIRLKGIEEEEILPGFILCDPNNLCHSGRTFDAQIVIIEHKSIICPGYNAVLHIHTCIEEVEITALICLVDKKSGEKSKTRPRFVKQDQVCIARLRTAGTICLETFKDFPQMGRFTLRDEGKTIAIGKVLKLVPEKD
T2 sequence (Q96SW2 whole entry): as the sequence (Q96SW2 whole entry) above
T2 sequence (Q16531 whole entry partner): as the sequence (Q16531 whole entry partner) above

With `O=C1CCC(N2Cc3cc(OC4CN(C(c5ccccc5)c5ccccc5)C4)ccc3C2=O)C(=O)N1` (stereo not drawn) [GT-06185, 3-(5-((1-benzhydrylazetidin-3-yl)oxy)-1-oxoisoindolin-2-yl)piperidine-2,6-dione], the “substrate protein remaining %” value at IKZF2, at GSPT1 and at IKZF3 was “A (0%≤ substrate protein remaining % ≤80%)” throughout. In experiment [1], the concentration for half-maximal inhibition (IC50) is less than 500 nM.

With `O=C1CCC(N2Cc3cc(SC4CNC4)ccc3C2=O)C(=O)N1` (stereo not drawn) [GT-03613, 3-(5-(azetidin-3-ylthio)-1-oxoisoindolin-2-yl)piperidine-2,6-dione], the “substrate protein remaining %” value at Wee1, on IKZF2, on GSPT1, on CK1α and on IKZF1 was “A (0%≤ substrate protein remaining % ≤80%)” throughout. This compound also showed a half-maximal inhibitory concentration (IC50) in experiment [1] of less than 500 nM.

With `COc1ccc(C(c2ccc(OC)cc2)N2CC(Oc3ccc4c(c3)CN(C3CCC(=O)NC3=O)C4=O)C2)cc1` (stereo not drawn) [GT-06959, 3-(5-((1-(bis(4-methoxyphenyl)methyl)azetidin-3-yl)oxy)-1-oxoisoindolin-2-yl)piperidine-2,6-dione], the “substrate protein remaining %” value on Wee1, at GSPT1, on CK1α and on IKZF3 was “A (0%≤ substrate protein remaining % ≤80%)” each time. The IC50 in experiment [1] was less than 500 nM.

Turning to `O=C1CCC(N2Cc3cc(SC4CN(CC5=C(c6ccc(Cl)cc6)CCC(F)(F)C5)C4)ccc3C2=O)C(=O)N1` (stereo not drawn) [GT-06516, 3-(5-((1-((4′-chloro-4,4-difluoro-3,4,5,6-tetrahydro-[1,1′-biphenyl]-2-yl)methyl)azetidin-3-yl)thio)-1-oxoisoindolin-2-yl)piperidine-2,6-dione], the “substrate protein remaining %” value at Wee1, on IKZF2, at GSPT1, on CK1α and on IKZF3 was “A (0%≤ substrate protein remaining % ≤80%)” each time. Moreover, the IC50 in experiment [1] was 1000 to 1900 nM.

Regarding `CC1(C)CCC(C(=O)N2C[C@H]3CC(Sc4ccc5c(c4)CN(C4CCC(=O)NC4=O)C5=O)C[C@H]3C2)=C(c2ccc(Cl)cc2)C1` (stereo partly drawn) [GT-07015, 3-(5-(((3aR,6aS)-2-(4′-chloro-5,5-dimethyl-3,4,5,6-tetrahydro-[1,1′-biphenyl]-2-carbonyl)octahydro-cyclopenta[c]pyrrol-5-yl)thio)-1-oxoisoindolin-2-yl)piperidine-2,6-dione], the “substrate protein remaining %” value at IKZF2 and on IKZF3 was “A (0%≤ substrate protein remaining % ≤80%)” in each case. Moreover, the IC50 in experiment [1] was in the range of 500 to 1000 nM.

Take `O=C1CCC(N2Cc3cc(OC4CN(CC5=C(c6ccc(F)cc6)CCOC5)C4)ccc3C2=O)C(=O)N1` (stereo not drawn) [GT-06560, 3-(5-((1-((4-(4-fluorophenyl)-5,6-dihydro-2H-pyran-3-yl)methyl)azetidin-3-yl)oxy)-1-oxoisoindolin-2-yl)piperidine-2,6-dione]: the “substrate protein remaining %” value on Wee1 and on IKZF3 was “A (0%≤ substrate protein remaining % ≤80%)” in each case. Also, the IC50 in experiment [1] lay in the range of 500 to 1000 nM.

With `O=C1CCC(N2Cc3cc(SC4CCN(C(=O)c5ccccc5-c5ccc(Cl)cc5)C4)ccc3C2=O)C(=O)N1` (stereo not drawn) [GT-06181, 3-(5-((1-(4′-chloro-[1,1′-biphenyl]-2-carbonyl)pyrrolidin-3-yl)thio)-1-oxoisoindolin-2-yl)piperidine-2,6-dione], the “substrate protein remaining %” value at Wee1, at GSPT1 and at IKZF3 was “A (0%≤ substrate protein remaining % ≤80%)” in each case. Besides, the IC50 in experiment [1] is less than 500 nM.

Take `O=C1CCC(N2Cc3cc(SC4CN(Cc5ccc(-c6ccncc6)nc5)C4)ccc3C2=O)C(=O)N1` (stereo not drawn) [GT-06808, 3-(5-((1-([2,4′-bipyridin]-5-ylmethyl)azetidin-3-yl)thio)-1-oxoisoindolin-2-yl)piperidine-2,6-dione]: the “substrate protein remaining %” value at Wee1, on IKZF2, on CK1α and on IKZF1 was “A (0%≤ substrate protein remaining % ≤80%)” throughout. This compound yielded an IC50 in experiment [1] of 500 to 1000 nM.

Turning to `O=C1CCC(N2Cc3cc(SC4CCC5(CC4)CCN(C(c4ccccc4)c4ccccc4)CC5)ccc3C2=O)C(=O)N1` (stereo not drawn) [GT-06958, 3-(5-((3-benzhydryl-3-azaspiro[5.5]undecan-9-yl)thio)-1-oxoisoindolin-2-yl)piperidine-2,6-dione], the “substrate protein remaining %” value on Wee1, on GSPT1, at CK1α and on IKZF3 was “A (0%≤ substrate protein remaining % ≤80%)” each time. For the same compound, in experiment [1], the IC50 is less than 500 nM.

Regarding `CC1(C)CCC(C(=O)N2C[C@H]3CC(Sc4ccc5c(c4)CN(C4CCC(=O)NC4=O)C5=O)C[C@@H]3C2)=C(c2ccc(Cl)cc2)C1` (stereo partly drawn) [GT-07022, 3-(5-(((3aS,6aS)-2-(4′-chloro-5,5-dimethyl-3,4,5,6-tetrahydro-[1,1′-biphenyl]-2-carbonyl)octahydro-cyclopenta[c]pyrrol-5-yl)thio)-1-oxoisoindolin-2-yl)piperidine-2,6-dione], the “substrate protein remaining %” value on CK1α and on IKZF3 was “A (0%≤ substrate protein remaining % ≤80%)” throughout. This compound also had an IC50 in experiment [1] of 500 to 1000 nM.

On to `O=C1CCC(N2Cc3cc(SC4CCN(C(c5ccccc5)c5ccccc5)CC4)ccc3C2=O)C(=O)N1` (stereo not drawn) [GT-06184, 3-(5-((1-benzhydrylpiperidin-4-yl)thio)-1-oxoisoindolin-2-yl)piperidine-2,6-dione], for which the “substrate protein remaining %” value at GSPT1 and at IKZF3 was “A (0%≤ substrate protein remaining % ≤80%)” each time. Besides, the concentration for half-maximal inhibition (IC50) in experiment [1] was in the range of 500 to 1000 nM.

On to `CC1(C)CCC(CN2CCCC(Oc3ccc4c(c3)CN(C3CCC(=O)NC3=O)C4=O)CC2)=C(c2ccc(Cl)cc2)C1` (stereo not drawn) [GT-06929, 3-(5-((1-((4′-chloro-5,5-dimethyl-3,4,5,6-tetrahydro-[1,1′-biphenyl]-2-yl)methyl)azepan-4-yl)oxy)-1-oxoisoindolin-2-yl)piperidine-2,6-dione], for which the “substrate protein remaining %” value at Wee1, at IKZF2 and on IKZF3 was “A (0%≤ substrate protein remaining % ≤80%)” throughout. In experiment [1], this compound returned an IC50 of 500 to 1000 nM.
